Measured values as given in patent publication US20100248390A1, “COMPOSITIONS AND METHODS FOR IDENTIFYING LIGANDS OF ODORANT RECEPTORS” (DUKE UNIVERSITY, priority 2009, published 2010).

Experiments:
[1] = biological target: T1, mouse odorant receptors (ORs) (Mus musculus, UniProt Q8VG42); experiment: CRE-luciferase assay of odorant receptor activation (Dual-Glo, Hana3A cells, RTP1S), dose-response EC50; format: cell-based; conditions: receptor MOR204-6; for log EC50, MOR204-6: 0 = no response
T1 construct: OR open reading frames were amplified from genomic DNA; expressed in transfected cells; host or cells: Hana3A cells, co-transfected with RTP1S, CRE-luciferase and pRL-SV40
T1 sequence (Q8VG42 1-310): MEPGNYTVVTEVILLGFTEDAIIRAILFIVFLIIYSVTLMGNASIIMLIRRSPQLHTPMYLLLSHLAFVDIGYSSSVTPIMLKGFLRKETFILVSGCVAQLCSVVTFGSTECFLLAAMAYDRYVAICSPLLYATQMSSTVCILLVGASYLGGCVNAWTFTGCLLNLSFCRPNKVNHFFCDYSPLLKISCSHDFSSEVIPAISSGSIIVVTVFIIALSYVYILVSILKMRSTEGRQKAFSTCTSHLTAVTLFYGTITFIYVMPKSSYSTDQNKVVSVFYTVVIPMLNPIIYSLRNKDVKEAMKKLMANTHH

[2] = biological target: T2, mouse odorant receptors (ORs) (Mus musculus, UniProt P23275); experiment: as above; format: cell-based; conditions: receptor MOR256-17; read-out: log EC50 of odorant at MOR256-17 (0 = no response) (converted)
T2 construct: OR open reading frames were amplified from genomic DNA; expressed in transfected cells; host or cells: Hana3A cells, co-transfected with RTP1S, CRE-luciferase and pRL-SV40
T2 sequence (P23275 1-312): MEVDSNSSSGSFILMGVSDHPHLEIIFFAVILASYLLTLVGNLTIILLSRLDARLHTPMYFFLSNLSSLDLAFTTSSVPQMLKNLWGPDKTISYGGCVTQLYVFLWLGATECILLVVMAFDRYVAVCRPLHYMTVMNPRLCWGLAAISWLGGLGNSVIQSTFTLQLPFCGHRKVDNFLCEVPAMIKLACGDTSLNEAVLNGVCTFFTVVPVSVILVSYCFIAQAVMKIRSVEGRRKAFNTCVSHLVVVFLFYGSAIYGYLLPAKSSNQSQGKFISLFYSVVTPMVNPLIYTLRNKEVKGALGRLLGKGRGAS

SMILES	log EC50, MOR204-6 [1]	EC50 [2]	further results
O=c1ccc2ccccc2o1 [Coumarin]			EC50 ([1]; read-out: log EC50 (Table 4 value), MOR204-6 (converted)): 7.96 µM
CCCCCCCCC(=O)O [Nonanoic acid]		20.2 µM	
CCCCCCCCS [Octanethiol]		40.9 µM	
CCCCCCCC(=O)O [Octanoic Acid]		38.9 µM	

Further lines, with some results ahead:

log EC50, MOR204-6 [1]	EC50 [2]	SMILES	further results
−3.625		C=C(C)C1CC=C(C)C(=O)C1 (single isomer, unassigned; (-)) [(−)-Carvone]	
−3.85		C=C(C)[C@H]1CC=C(C)C(=O)C1 [(+)-Carvone]	
